Measured values reported in PMC2788963 (Bioorganic & medicinal chemistry letters, 2009).

Target: SERT (Rattus norvegicus, UniProt P31652)
Assay type: binding
Settings: selectivity, ratio of Ki values

Chain of SERT (P31652 whole entry): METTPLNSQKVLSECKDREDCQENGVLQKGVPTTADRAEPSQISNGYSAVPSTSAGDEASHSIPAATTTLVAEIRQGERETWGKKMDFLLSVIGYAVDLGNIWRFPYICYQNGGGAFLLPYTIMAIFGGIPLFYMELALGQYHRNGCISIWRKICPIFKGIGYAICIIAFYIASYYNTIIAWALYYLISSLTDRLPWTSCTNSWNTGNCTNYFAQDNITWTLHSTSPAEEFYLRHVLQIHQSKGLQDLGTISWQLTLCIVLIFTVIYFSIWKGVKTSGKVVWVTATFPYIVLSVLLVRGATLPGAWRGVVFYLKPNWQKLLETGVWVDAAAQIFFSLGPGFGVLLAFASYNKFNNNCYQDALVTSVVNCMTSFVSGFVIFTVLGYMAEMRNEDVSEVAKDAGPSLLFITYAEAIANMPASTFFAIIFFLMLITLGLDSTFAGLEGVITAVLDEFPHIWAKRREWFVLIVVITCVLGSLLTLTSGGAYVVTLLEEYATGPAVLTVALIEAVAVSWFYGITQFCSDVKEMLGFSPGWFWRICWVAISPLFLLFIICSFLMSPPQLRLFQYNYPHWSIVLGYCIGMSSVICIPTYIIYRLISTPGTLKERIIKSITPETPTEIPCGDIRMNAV

## Clc1ccc(CO[C@@]2(c3ccc(Cl)cc3)C[C@H]3CC[C@@H](C2)N3)cc1 [7f]
  NET/SERT: 23,700
